How the values were obtained:
UhL [1] = biological target: T1, UhL (Ustilago hordei, UniProt I2G5F8); assay: hydrolysis halo on tributyrin agar plate of expressing clones (wild-type X-33 as control); assay type: cell-based; conditions: BMMY agar, pH 6.0, 30 °C, 4 days, methanol induction
T1 construct: gene UHOR_02134; codon-optimized gene in pPICZalphaA (alpha-factor secretion), C-terminal 6xHis, 330 residues expressed, 35 kDa predicted / 36 kDa by Western blot, N-glycosylated; Pichia pastoris X-33 culture supernatant, not purified
T1 sequence (I2G5F8 20-343): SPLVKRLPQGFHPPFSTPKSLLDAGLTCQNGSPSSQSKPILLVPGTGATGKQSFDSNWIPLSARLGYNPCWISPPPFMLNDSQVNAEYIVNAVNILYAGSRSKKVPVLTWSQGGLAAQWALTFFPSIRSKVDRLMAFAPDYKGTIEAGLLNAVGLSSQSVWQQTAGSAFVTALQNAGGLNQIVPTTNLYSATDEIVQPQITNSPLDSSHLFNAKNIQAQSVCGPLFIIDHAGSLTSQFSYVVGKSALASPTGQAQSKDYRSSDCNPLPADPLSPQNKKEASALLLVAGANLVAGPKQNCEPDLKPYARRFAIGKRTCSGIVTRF

UhL [2] = biological target: T1, UhL; assay: spectrofluorimetric release of 4-methylumbelliferone by culture supernatant; assay type: biochemical; conditions: pH 7, 0.05 M phosphate, 45 °C; crude culture supernatant
rLipB = biological target: T2, rLipB (Moesziomyces antarcticus, UniProt P41365); assay: spectrofluorimetric release of 4-methylumbelliferone by lyophilized culture supernatant; assay type: biochemical; conditions: pH 7, 0.05 M phosphate, 45 °C; crude lyophilized supernatant
T2 construct: recombinant CaLB secreted constitutively (PGK promoter) by Pichia pastoris; lyophilized culture supernatant, gift of LaBiM, not purified
T2 sequence (P41365 26-342): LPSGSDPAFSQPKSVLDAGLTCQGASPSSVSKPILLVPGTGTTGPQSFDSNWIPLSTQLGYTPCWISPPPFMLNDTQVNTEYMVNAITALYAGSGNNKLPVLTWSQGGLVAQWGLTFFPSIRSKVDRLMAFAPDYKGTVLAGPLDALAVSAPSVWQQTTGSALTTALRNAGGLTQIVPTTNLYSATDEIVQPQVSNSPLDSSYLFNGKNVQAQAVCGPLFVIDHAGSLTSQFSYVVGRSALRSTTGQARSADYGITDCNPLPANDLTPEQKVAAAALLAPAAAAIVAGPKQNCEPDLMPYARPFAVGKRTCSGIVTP

| SMILES | hydrolysis halo on tributyrin agar plate of expressing clones (wild-type X-33 as) (UhL [1]) | relative activity (UhL [2]) | relative activity (rLipB) |
| --- | --- | --- | --- |
| CCCC(=O)OCC(COC(=O)CCC)OC(=O)CCC [tributyrin] | expressed in Pichia pastoris, showing activity against tributyrin triglyceride | – | – |
| CCCCCCC(=O)Oc1ccc2c(C)cc(=O)oc2c1 [MUF-7, MUF-heptanoate] | – | Both enzymes showed the highest activity with MUF-heptanoate (MUF-7) | Both enzymes showed the highest activity with MUF-heptanoate (MUF-7) |
| CCCC(=O)Oc1ccc2c(C)cc(=O)oc2c1 [C4, MUF-butyrate] | – | – | rLipB activity was increased, as the ester substrate chain length increased up to C7 |
